Test results as given in US10371707B1, “System and methods for bilirubin analysis” (Neolight LLC, priority 2017, dated 2019).
Structures can show the parent of a compound that is named as a salt.

How the values were obtained:
[1] = Cyclic voltammetry, direct electro-oxidation on screen-printed carbon electrodes; format: physicochemical; details: for anodic peak Epa: first/characteristic anodic peak, carbon electrodes, Ag/AgCl reference, scan rate 0.1 V/s, 0.05M Tris-HCl pH 8.5
Protocol: (§1) All electrochemical experiments were performed on screen-printed carbon electrodes with an Ag/AgCl reference electrode in a 3-electrode mode of operation. Cyclic Voltammetry parameters were controlled via a computational program; scan rate: 0.1 V/s, start potential: −0.5V, switch potential: 0.9V, end potential: −0.5V.
(§2) Deionized water (resistivity 18.2MΩ cm) was used in the preparation of solutions. Bilirubin was dissolved in 0.05M sodium hydroxide to prepare 1 mM stock and gently vortexed till homogenously mixed. This stock solution was then diluted using 0.05 M Tris-HCl (pH 8.5) to the desired working concentration. […] Bromophenol blue was prepared in 0.05M Tris-HCl (pH 8.5). Conjugated bilirubin was dissolved in 0.05M Tris-HCl (pH 8.5) and mixed till homogenous. All tubes containing bilirubin were protected from light.
Regarding the detection of unbound unconjugated bilirubin, it was diluted to a physiologically relevant concentration (100 μM) and analyzed by cyclic voltammetry.

Human serum albumin = target: T1, Human serum albumin (Homo sapiens, UniProt P02768); assay: Binding to albumin and displacement of bilirubin by bromophenol blue, assessed by cyclic voltammetry; details: for binding affinity to albumin (in words): inferred from voltammetric results; for effect of binding to albumin on electrochemical oxidation of the ligand: mixed with albumin, cyclic voltammetry; for peak current of liberated unconjugated bilirubin (peak at 0.15V): unconjugated bilirubin + albumin + bromophenol blue
T1 construct: purchased Sigma Aldrich, UK
Protocol: as §1, §2
Surfactants, caffeine, sodium benzoate and fatty acids are common solubilizing agents.
As with unconjugated bilirubin, bromophenol blue was used a competitive binding ligand for the displacement of conjugated bilirubin.

albumin = target: T2, albumin (Homo sapiens, UniProt P02768); details: within human plasma; cited from earlier work
T2 construct: host or cells: human plasma
T2 sequence (P02768 25-609): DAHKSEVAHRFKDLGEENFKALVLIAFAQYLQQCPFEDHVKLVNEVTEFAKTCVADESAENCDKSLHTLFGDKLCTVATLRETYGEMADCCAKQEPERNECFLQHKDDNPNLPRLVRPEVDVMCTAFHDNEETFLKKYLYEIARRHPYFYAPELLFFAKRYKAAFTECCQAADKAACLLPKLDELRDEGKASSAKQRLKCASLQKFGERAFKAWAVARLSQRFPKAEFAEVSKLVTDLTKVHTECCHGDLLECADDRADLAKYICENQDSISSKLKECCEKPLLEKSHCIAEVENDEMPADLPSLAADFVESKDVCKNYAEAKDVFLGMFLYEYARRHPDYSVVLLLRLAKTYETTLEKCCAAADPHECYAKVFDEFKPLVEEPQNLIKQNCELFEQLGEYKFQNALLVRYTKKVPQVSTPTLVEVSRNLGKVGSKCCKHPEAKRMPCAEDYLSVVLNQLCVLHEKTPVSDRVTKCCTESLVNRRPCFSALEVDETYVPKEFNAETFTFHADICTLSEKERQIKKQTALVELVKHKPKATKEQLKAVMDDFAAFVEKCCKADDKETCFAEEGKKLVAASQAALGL

T1 sequence (P02768 25-609): as above

SMILES	anodic peak Epa [1] [V]	displacement of conjugated bilirubin from albumin (Human serum albumin; conjugated bilirubin, albumin, bromophenol blue at 1:1:1 ratio)	displacement of unconjugated bilirubin from albumin (Human serum albumin; equal concentration ratios of unconjugated bilirubin, albumin and bromophenol blue)	binding affinity to albumin (in words) (Human serum albumin)	effect of binding to albumin on electrochemical oxidation of the ligand (Human serum albumin)	peak current of liberated unconjugated bilirubin (peak at 0.15V) (Human serum albumin; bromophenol blue concentration increased threefold) [μA]	peak current of liberated unconjugated bilirubin (peak at 0.15V) (Human serum albumin; bromophenol blue concentration increased two-fold) [μA]	unconjugated bilirubin bound to albumin (albumin)	third anodic peak ([1]; cyclic voltammetry, same set-up) [V]	secondary anodic peak ([1]; cyclic voltammetry, same set-up, for unconjugated bilirubin distinct at 50 μM and higher) [V]
O=S1(=O)OC(c2cc(Br)c(O)c(Br)c2)(c2cc(Br)c(O)c(Br)c2)c2ccccc21 [bromophenol blue, 4,4′-(1,1-dioxido-3H-2,1-benzoxathiole-3,3-diyl)bis(2,6-dibromophenol)]	0.64	sufficiently displaced the conjugated bilirubin	no displacement of unconjugated bilirubin was observed	higher binding affinity	diminish the bromophenol blue peak at 0.64V	0.347	0.645	–	–	–
C=CC1=C(C)/C(=C/c2[nH]c(Cc3[nH]c(/C=C4\NC(=O)C(C)=C4C=C)c(C)c3CCC(=O)O)c(CCC(=O)O)c2C)NC1=O [unconjugated bilirubin, Bilirubin (mixed isomers)]	–	–	–	–	–	–	–	roughly 99.9%	–	–
C=CC1=C(C)/C(=C/c2[nH]c(Cc3[nH]c(/C=C4\NC(=O)C(C)=C4C=C)c(C)c3CCC(=O)NCCS(=O)(=O)O)c(CCC(=O)NCCS(=O)(=O)O)c2C)NC1=O [conjugated bilirubin, Bilirubin conjugated ditaurate disodium salt]	0.15	–	–	weaker than that of unbound bilirubin	hinders oxidation of bilirubin	–	–	–	0.44	0.3
